In ChEMBL document CHEMBL1201862, “PubChem BioAssay data set” (2004):
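Protocol summary: plate cells (96-well), add compound at 5 concentrations, incubate 48 h, interpolate endpoints linearly. GI50 is the concentration that inhibits growth by half.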 Activity calls are given as the source filed them. Cut-off read from the data, not from the text of the source: active = GI50 up to about 1.1 µM and inactive = higher.

What was measured:
Experiment in all cases: DTP human tumour cell line panel, 48 h
A549 = test system: A549
CAKI-1 = test system: CAKI-1
CCRF-CEM = test system: CCRF-CEM
COLO 205 = test system: COLO 205
HCC 2998 = test system: HCC 2998
HCT-15 = test system: HCT-15
HOP-62 = test system: HOP-62
HOP-92 = test system: HOP-92
NCI-H23 = test system: NCI-H23
OVCAR-8 = test system: OVCAR-8
RPMI-8226 = test system: RPMI-8226
SF-539 = test system: SF-539
SNB-19 = test system: SNB-19
SR = test system: SR
UACC-257 = test system: UACC-257
UO-31 = test system: UO-31
LOX IMVI = test system: LOX IMVI

Row | Compound | GI50 (A549) | GI50 (CAKI-1) | GI50 (CCRF-CEM) | GI50 (COLO 205) | GI50 (HCC 2998) | GI50 (HCT-15) | GI50 (HOP-62) | GI50 (HOP-92) | GI50 (NCI-H23) | GI50 (OVCAR-8) | GI50 (RPMI-8226) | GI50 (SF-539) | GI50 (SNB-19) | GI50 (SR) | GI50 (UACC-257) | GI50 (UO-31) | GI50 (LOX IMVI)
1 | CCC(C(=O)c1ccccc1)C(CCCC(=O)Nc1c(C)cccc1C)N=O (centres undefined) | > 100 µM (inactive) | > 100 µM (inactive) | > 100 µM (inactive) | > 100 µM (inactive) | > 100 µM (inactive) | > 100 µM | > 100 µM (inactive) | > 100 µM (inactive) | > 100 µM (inactive) | > 100 µM (inactive) | > 100 µM (inactive) | > 100 µM (inactive) | > 100 µM (inactive) | > 100 µM (inactive) | > 100 µM (inactive) | > 100 µM (inactive) | –
2 | CC(C)C(=O)/C=C/c1ccccc1 | > 100 µM (inactive) | – | 23.9 µM (inactive) | > 100 µM (inactive) | > 100 µM (inactive) | – | – | > 100 µM (inactive) | 63.8 µM (inactive) | – | 37.1 µM (inactive) | > 100 µM (inactive) | > 100 µM (inactive) | 31.2 µM (inactive) | 94.8 µM (inactive) | > 100 µM (inactive) | 83.6 µM (inactive)
3 | O=C(c1ccc(O)cc1)C1c2c3c(cc(O)c2C(c2ccc(O)cc2)C1c1cc(O)cc(O)c1)OC(c1ccc(O)cc1)C3c1cc2c(cc1O)OC(c1ccc(O)cc1)C2c1cc(O)cc(O)c1 (centres undefined) | > 12.5 µM (inactive) | > 12.5 µM (inactive) | > 12.5 µM (inactive) | > 12.5 µM (inactive) | > 12.5 µM (inactive) | > 12.5 µM | > 12.5 µM (inactive) | > 12.5 µM (inactive) | > 12.5 µM (inactive) | > 12.5 µM (inactive) | > 12.5 µM (inactive) | > 12.5 µM (inactive) | > 12.5 µM (inactive) | > 12.5 µM (inactive) | > 12.5 µM (inactive) | > 12.5 µM (inactive) | > 12.5 µM (inactive)
4 | CCCc1ccc(/N=C\c2cc(OC)c(OC)c(OC)c2)cc1 | > 100 µM (inactive) | > 100 µM (inactive) | 26.6 µM (inactive) | > 31.6 µM (inactive) | – | > 39.9 µM | > 100 µM (inactive) | > 51.3 µM (inactive) | > 100 µM (inactive) | > 100 µM (inactive) | 24.4 µM (inactive) | > 100 µM (inactive) | > 100 µM (inactive) | 55.5 µM (inactive) | > 100 µM (inactive) | > 100 µM (inactive) | > 52.1 µM (inactive)
5 | Cc1cc(Cl)ccc1NC(=O)C(=O)C(C(=O)c1ccccc1)C1OC(=O)c2ccccc21 (centres undefined) | > 100 µM (inactive) | > 100 µM (inactive) | > 100 µM (inactive) | > 100 µM (inactive) | > 100 µM (inactive) | > 100 µM | > 100 µM (inactive) | > 100 µM (inactive) | > 100 µM (inactive) | > 100 µM (inactive) | > 100 µM (inactive) | > 100 µM (inactive) | > 100 µM (inactive) | > 100 µM (inactive) | > 100 µM (inactive) | > 100 µM (inactive) | > 100 µM (inactive)
